{"source": "patent US9464283B2", "about": "“Signaling compositions, methods, and systems for effecting plant growth and crop enhancement” (KamTec, LLC, priority 2013, dated 2016)", "key": {"'M-202' rice": {"test_system": "'M-202' rice", "test": "Rice seed soak 24 hours, tap water irrigation", "format": "in vivo, Oryza sativa L.", "conditions": "5 ppm, 24 hours soak", "protocol": "In this preferred embodiment of the present invention, seeds are soaked in prepared bio-regulator solutions for a period of 24 hours. Rice seeds were selected from the same ‘M-202’ type grains as in the previous study. The bio-regulator solutions were prepared using 5 ppm BMPA solution. The solution was drained and seeds planted in starter plastic containers filled with potting soil. After germination and plant growth reaching height of four inches, rice seedlings were transplanted from their greenhouse containers to six-inch diameter plastic containers and placed outdoor. Again, two sets of three pots for the control and test group were used. These studies were also carried out using an increased amount of BMPA. The amount was increased from 1 ppm to 5 ppm, and the results of the study were similar to the results outlined in the paragraph above."}, "[1]": {"test_system": "aphid infestation on cotton Bt plant", "test": "Aphid infestation of cotton Bt plants after seed soak", "format": "in vivo", "conditions": "5 ppm BMPA seed soak", "protocol": "In this preferred embodiment of the present invention, seeds were soaked for a period of 3 hours in the bio-regulator solution. Cotton Bt were selected and studied to determine if bio-regulator chemistry will enhance or influence the inserted Bt genes of the transgenic plant. The seeds were separated into two different sets on July 2. The first set, Set 1, was soaked in 5 ppm BMPA solution with 0.05% Kinetic®. The second set, Set 2, was soaked in water with 0.05% v/v Kinetic®. The solution was drained and the treated seeds planted in starter plastic trays. After germination and after the seedlings reached the height of four inches, the cotton Bt plants were transplanted into larger six-inch plastic containers. The cotton plants were placed outdoors for the duration of the study. The different sets of plants were regularly observed throughout this study."}, "Melody variety sunflower": {"test_system": "Melody variety sunflower", "test": "Sunflower seed soak, field plots", "format": "in vivo", "conditions": "per Rep; 3 ppm, three hours seed soak", "from_the_text": "In this preferred embodiment of the present invention, sunflower seeds were selected from the Melody variety and were soaked for three hours in solutions containing 0.05% Tween 20 and BMTA or BMPA, at a concentration of 3 ppm. Another group of seeds of the same variety was soaked in a solution with only in 0.05% Tween 20 added (control). Following soaking, seeds were desiccated to storage moisture contents and BMTA, BMPA and control seeds were sown in three twenty-five foot plots (Reps) each on May 21 (plots were arranged in a randomized block design). On September 16, sunflower heads were harvested, with a harvest of around 20 heads per plot/Rep on average. The heads were hand-threshed to collect seeds. Moisture, count, and weight data was collected on seeds from each head."}, "[2]": {"test_system": "'M-202' medium-grain rice (Oryza sativa L.)", "test": "Rice seed soak with NaCl irrigation (salt tolerance)", "format": "in vivo", "conditions": "5 ppm, 1500 ppm NaCl irrigation, planting through completion of study", "protocol": "In another preferred embodiment of the present invention, seeds are soaked in prepared bio-regulator solutions for a period of three hours. Rice seeds were selected from ‘M-202’ medium-grain rice (Oryza sativa L.), (Reg. no 72) PI494105 type grains; this selection was meant to represent a typical California rice seed, and was not meant to be limiting. The bio-regulator solutions are prepared using 5 ppm BMTA solution with 0.05% v/v Kinetic® made by Helena Chemical Company. The solution was drained and the seeds planted in starter plastic containers with potting soil. After germination and having grown to 4 inches in height, the plants were transplanted into 6 inch diameter plastic containers. Two sets of three pots each were set up for this study; one set for the test group and one set for the control group. Both the control and test studies were irrigated with 1500 ppm NaCl solution from time of planting until the study was completed. The purpose of the NaCl irrigation was to determine the effect of the bio-regulator treatment in regards to salt tolerances."}}, "note": "“And” between values parts separate entries of the source, which are not always exact repeats. Equal values may be shown once."}
{"molecule": "CN(CCOC(=O)COc1ccccc1)Cc1ccccc1", "note": "[BMPA]", "values": [{"measurement": "observed growth of rice plant", "setting": "'M-202' rice", "value": "enhanced growth"}, {"measurement": "delay of the infestation of aphids", "setting": "[1]", "value": "≤ 19", "unit": "days"}, {"measurement": "% Moist", "setting": "Melody variety sunflower", "value": "13.52% and 13.93% and 12.37%"}]}
{"molecule": "Cc1ccc(C(=O)OCCN(C)Cc2ccccc2)cc1", "note": "[BMTA]", "values": [{"measurement": "observed growth of rice plant", "setting": "[2]", "value": "enhanced growth"}, {"measurement": "% Moist", "setting": "Melody variety sunflower", "value": "13.10% and 13.01% and 14.82%"}]}
